Experimental data: patent US20210009630A1, “CYCLIC DINUCLEOTIDES AS STING AGONISTS” (Janssen Biotech, Inc., priority 2017, published 2021)

Experiments:
[1] = target: T1, human STING (E. coli produced truncated STING protein) (Homo sapiens, UniProt Q86WV6, H232R); test: STING SPR binding assay; conditions: steady state affinity, 1:1 binding model, 25° C.
T1 construct: contains residues 139-379 of Q86WV6 with an R at position 232 (H232R); HIS tag (N, cleaved yes); made in house; host or cells: E. coli
Protocol: Compounds were analyzed on an S200 biacore SPR instrument (GE Healthcare). E. coli produced truncated STING protein was immobilized on a series S streptavidin chip via biotin capture (GE Healthcare #BR100531) with. […] Steady state affinity and kinetic evaluations were carried out using 1:1 binding model (STING was treated as a dimer). Run parameters were as follows: 60 sec on, 300 sec off for the IFM compounds, cyclic-di-GMP (60 sec on/60 sec off), thiol isomer 1 (60 sec on/300 sec off) and cGAMP (60 sec on/1200 sec off) with a flow rate of 50 μL/min and data collection at 40 Hz at 25° C.

[2] = target: human STING (biotinylated STING protein, residues 139-379 of Q86WV6, H232R) (Homo sapiens, UniProt Q86WV6, H232R); test: STING SPA binding assay
Protocol: The HIS tag is cleaved after purification and prior to biotinylation.
Test compounds (80 nL) were added with an acoustic dispenser (EDC Biosystems) in 100% DMSO for a final assay concentration of 1% DMSO. Plates were centrifuged for 1 min and incubated for 60 min at room temperature. […] Plates were dark adapted for 2 h and read on a ViewLux (Perkin Elmer) for 12 min per plate.

[3] = system: human STING pathway (THP1-ISG cells); test: STING human cell reporter assay; type: cell-based; conditions: Homo sapiens, IRF-inducible SEAP reporter, 24 h, means of at least three values
Protocol: Agonism of the human STING pathway is assessed in THP1-ISG cells (Invivogen, cat #thp-isg) derived from human THP1 monocyte cell line by stable integration of an interferon regulatory factor (IRF)-inducible SEAP reporter construct. THP1-Blue ISG cells express a secreted embryonic alkaline phosphatase (SEAP) reporter gene under the control of an ISG54 minimal promoter in conjunction with five interferon (IFN)-stimulated response elements. As a result, THP1-Blue ISG cells allow the monitoring of IRF activation by determining the activity of SEAP. The levels of IRF-induced SEAP in the cell culture supernatant are readily assessed with alkaline phosphatase detection medium, a SEAP detection reagent. These cells are resistant to Zeocin. 2′3′cGAMP was used as a positive control in this assay. To run the assay, 60,000 cells were dispensed in 30 μL/well of a white, opaque bottom tissue culture treated 384-well plate.
Test compounds were added in a volume of 10 μL (1% DMSO final concentration). Compounds are initially prepared in 100% DMSO, spotted on an compound dilution plate and then diluted in media prior to transfer. The assay was incubated for 24 h at 37° C., 5% CO2 then plates were centrifuged at 1200 rpm (120×g) for 5 min. After final incubation, 90 μL of alkaline phosphatase detection medium-substrate was added to each well of a new 384-well clear plate and 10 μL of the cell supernatant was transferred from the assay plate to the new alkaline phosphatase detection medium-plate using a Biomek FX and mixed 4 times. Plates were incubated at RT for 20 min then absorbance at 655 nm was determined on the Tecan Safire2.

[4] = system: THP1-Blue ISG cells (IFN-β secretion); test: Human interferon-β induction assay; type: cell-based; conditions: total cumulative IFN-β induction over the dose range tested (0.78 to 50 uM) in THP-1 cells after a 24 hour exposure
Protocol: THP1-Blue ISG cells are used to measure the secretion of IFN-β into the culture supernatant following STING pathway activation. To run the assay, anti-IFN-β capture antibodies were coated on […] well MultiArray plates (Mesoscale Discovery). After a one hour incubation, plates were washed and 50 μL supernatant from the STING human cell reporter assay plates or IFN-β standards were mixed with 20 μL Sulfotag-conjugated detection antibody in the coated plates. Plates were incubated, shaking for 2 h, washed, and read buffer was applied. Electrochemiluminescence was measured on the SectorImager.

[5] = system: CT26 colon carcinoma tumor; test: STING in vivo activity, mouse CT26 tumor model; conditions: 0.05 mg intratumorally every three days, three doses, 8 mice per group; for In vivo activity (% TGI): CT26 tumors in Balb/c mice
Protocol: For all studies, female Balb/c mice were obtained from Charles River Labs (Wilmington, Mass.) and used when they were 6-8 weeks of age and weighed approximately 20 g. All animals were allowed to acclimate and recover from any shipping-related stress for a minimum of 5 days prior to experimental use. Reverse osmosis chlorinated water and irradiated food (Laboratory Autoclavable Rodent Diet 5010, Lab Diet) were provided ad libitum, and the animals were maintained on a 12 h light and dark cycle. Cages and bedding were autoclaved before use and changed weekly. All experiments were carried out in accordance with The Guide for the Care and Use of Laboratory Animals and were approved by the Institutional Animal Care and Use Committee of Janssen R & D, Spring House, Pa. Each experimental group contained 8 mice. In vivo efficacy in a mouse CT26 tumor model was determined by implanting 500,000 CT26 colon carcinoma tumor cells subcutaneously into Balb/c mice and allowing tumors to establish to 100-300 mm^3. Compounds were injected intratumorally formulated in phosphate buffered saline in a volume of 0.1 mL Per injection. Mice were administered 0.05 mg every three days for a total of three doses. Efficacy was measured as the percent tumor growth inhibition (TGI) calculated by the reduction in size of the Treated tumor volume (T) over the Control tumor volume (C) according to the following formula. ((C−T)/(C))*100 when all control animals were still on study. Cures were defined as the number of animals with no measurable tumor detected 10 tumor volume doubling times (TVDT) after the last dose was administered.

T1 sequence (Q86WV6 139-379 H232R): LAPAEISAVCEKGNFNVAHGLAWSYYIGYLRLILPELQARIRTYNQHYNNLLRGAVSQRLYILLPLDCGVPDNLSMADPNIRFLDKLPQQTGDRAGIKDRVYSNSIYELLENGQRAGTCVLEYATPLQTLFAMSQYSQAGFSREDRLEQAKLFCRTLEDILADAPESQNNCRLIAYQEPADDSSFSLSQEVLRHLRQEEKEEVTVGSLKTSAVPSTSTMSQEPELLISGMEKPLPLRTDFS
Sequence of human STING (biotinylated STING protein, residues 139-379 of Q86WV6, H232R) (Q86WV6 139-379 H232R, one chain of several): as the sequence (Q86WV6 139-379 H232R) above

Kd [1] | IC50 [2] | EC50 [3] | Structure (SMILES) | human IFN-β (ranking value) [4] | In vivo activity (% TGI) [5] | In vivo activity (cures) ([5]; number of animals with no measurable tumor 10 tumor volume doubling times after the last dose)
1.2 nM | 4.6 nM | 77 nM | CO[C@H]1[C@H]2OS(=O)(=O)NC[C@H]3O[C@@H](n4cnc5c(N)ncnc54)[C@H](F)[C@@H]3OP(=O)(O)OC[C@H]1O[C@H]2n1cnc2c(=O)[nH]c(N)nc21 [Compound 1] | 7930 pg/mL | 108.9% | 6
3480 nM | 29200 nM | 100 nM | CO[C@H]1[C@H]2OP(=O)(O)OC[C@@]34CO[C@@H]([C@H](n5cnc6c(N)ncnc65)O3)[C@@H]4OS(=O)(=O)NC[C@H]1O[C@H]2n1cnc2c(=O)[nH]c(N)nc21 [Compound 25] | 6595 pg/mL | 88.9% | –
